# Publication PMC12169104, “Towards the development of supramolecular self-associating amphiphiles as antibiofilm agents against Pseudomonas aeruginosa and Candida albicans biofilms” (Journal of Materials Chemistry. B, 2025)
# “And” between values parts separate entries of the source, which are not always exact repeats. Equal entries are not always repeated.
# Assays:
# [1] = Dynamic light scattering (DLS) of SSA aggregates; assay type: physicochemical; details: for Peak 2 (nm) / Peak 1 (nm) / Peak 3 (nm): DLS average intensity particle size distribution; for Peak 2 (nm) / PDI / Peak 1 (nm) / Peak 3 (nm): EtOH:H2O 1:19; for dH (nm): DLS intensity distribution peak maxima, H2O:EtOH 19:1, 2.78 mM, 298 K, after annealing
# From the text: DLS studies: All vials used for preparing the samples were clean and dry. All solvents used were filtered to remove any particulates that may interfere with the results obtained. Samples of differing concentrations were obtained through serial dilution of a concentrated solution. All samples underwent an annealing process, in which they were heated to 313 K before being allowed to cool to 298 K to allow each sample to reach a thermodynamic minimum. […]
# [2] = system: polymicrobial biofilms of C. albicans (SC5314) and P. aeruginosa (PAO1); set-up: method as in PMID 38222503; details: 0.16 mM, XTT assay, Fig. 8(c); cited from earlier work
# [3] = Calcein loaded vesicle leakage (lysis) assay; details: 298 K, PBS buffer 5% EtOH
# Experimental: To gauge the activity and selectivity of 1–5 and a–j against microbial membranes, a series of synthetic model vesicle systems were prepared, containing a variety of common bacterial membrane phospholipid headgroups: (i) phosphatidylglycerol (PG) only; (ii) phosphatidylethanolamine (PE) : PG 3 : 1 and; (iii) PE : PG 1 : 1.[50] Following our previous work in this area, we first quantified the ability of 1–5 and co-formulations a–j to lyse the aforementioned synthetic model phospholipid vesicle systems.[49] […] Here the fluorescent dye calcein was loaded into synthetic vesicles at a concentration where the dye self-quenches (70 mM). When the vesicle is lysed, the calcein is released to the extravesicular solution, effectively reducing calcein concentration to a point where the dye no longer undergoes self-quenching. Through comparison to a positive control experiment, in which 100% vesicle lysis was achieved through the addition of 2% X-100 Triton, the proportion of vesicles to undergo lysis in the presence or absence of SSA can be calculated. The data was then fitted to the Hill or linear equation to determine the effective concentration of SSA needed to lyse 50% of the vesicles present in solution (EC50) (Section S14, ESI ^†).[51] […]
# Preparation of vesicles: All lipids were purchased as powder stocks from Avanti Polar Lipids. Lipid vesicles were prepared according to standard procedures. Each phospholipid (~ 20 mg) was dissolved in chloroform: methanol 3:1 (~ 10 mL) and the solvent was removed under reduced pressure. The thin film of dried lipid was further dried in vacuo overnight. Lipid films were resuspended in the desired buffer and subjected to 10 freeze-thaw cycles in liquid nitrogen and extruded 19 times through a 200 nm polycarbonate membrane.
# Preparation of calcein loaded vesicles:2 Lipid films were resuspended in calcein dye (70 mg calcein, 865 µL deionized H2O, 135 µL NaOH (2 M), with NaOH added dropwise until calcein dissolved) and subjected to 10 freeze-thaw cycles in liquid nitrogen and extruded 19 times through a 200 nm polycarbonate membrane. The suspension was run down a size exclusion column packed with sephadex G-50 using 1 X PBS. The hydrodynamic dimeter of the lipids was monitored using an Anton Paar LitesizerTM 500 to ensure the separation of free and entrapped calcein. Phospholipid concentration was adjusted to 60 µM for vesicle leakage experiments.
# Vesicle leakage assay: Black bottom 96-well plates were prepared by serially diluting desired SSA in a EtOH: H2O 1:19 solution across the plate, the appropriate lipid solution (100 µL, 60 µM) was added to each well to give a total well volume of 200 µL. A solution of 2 % Triton X-100 was used for a 100 % lysis control and a EtOH: H2O 1:19 solution was used as a 0 % lysis control. Fluorescent measurements were taken at 25 °C using an excitation value of 495 nm and an optimised gain of 800. Data were acquired in endpoint mode. […]
# For fluorescent labelling, the desired vesicles were pre-incubated with DPH (10 µM) at 60 °C for 1 hour.
# Membrane fluidity assay: Black bottom 96-well plates were prepared by serially diluting desired SSA in a EtOH: H2O 1:19 solution across the plate, the appropriate DPH labelled vesicles (100 µL, 60 µM) were added to each well to give a total well volume of 200 µL. FP measurements were taken at 25 °C using a 355 nm filter for excitation and a 430 m for emission. […]
# Figure S168 – Average (n=3) […] readings of calcein loaded PE:PG 3:1 lipid vesicles (λem = 515 nm) following the addition of j at varying concentrations. Lysis value is triton (1 %). Blue = 1 minute, purple = 5 minutes, pink = 10 minutes, orange = 15 minutes, red = 20 minutes. Error = standard […]
# Section S14: Determination of vesicle lysis EC50 values
# Data was originally fitted to the Hill equation using origin software. If the fitting of these vesicle lysis data to the Hill equation failed then the data were fitted to a linear line of best fit to estimate EC50 […]
# above 0.1 mM. […]
# [4] = cited from earlier work; for CAC / CAC (mM) / ST at CAC (mN m^−1): H2O:EtOH 19:1, approx. 291 K; for CAC / CAC (mM): surface tension measurements; for ST at CAC (mN/M): Table S1, same datum as Table 1
# [5] = polydispersity index of DLS dH, 2.78 mM
# [6] = PE:PG 1:1 vesicles, 1 min (Timepoint 1 in Table S14)
# [7] = PE:PG 1:1 vesicles, 5 min (Timepoint 2 in Table S14)
# [8] = PE:PG 1:1 vesicles, 10 min (Timepoint 3 in Table S14)
# [9] = PE:PG 1:1 vesicles, 15 min (Timepoint 4 in Table S14)
# [10] = PE:PG 1:1 vesicles, 20 min (Timepoint 5 in Table S14)
# [11] = PE:PG 3:1 vesicles, 1 min (Timepoint 1 in Table S13)
# [12] = PE:PG 3:1 vesicles, 5 min (Timepoint 2 in Table S13)
# [13] = PE:PG 3:1 vesicles, 10 min (Timepoint 3 in Table S13)
# [14] = PE:PG 3:1 vesicles, 15 min (Timepoint 4 in Table S13)
# [15] = PE:PG 3:1 vesicles, 20 min (Timepoint 5 in Table S13)
# [16] = PG vesicles, 1 min (Timepoint 1 in Table S12), total molar concentration
# [17] = PG vesicles, 5 min (Timepoint 2 in Table S12)
# [18] = PG vesicles, 10 min (Timepoint 3 in Table S12)
# [19] = PG vesicles, 15 min (Timepoint 4 in Table S12)
# [20] = PG vesicles, 20 min (Timepoint 5 in Table S12)
Structure (SMILES),Peak 2 (nm) ([1]; 0.28 mM),Peak 2 (nm) ([1]; 2.78 mM),dH (nm) [1],"PDI ([1]; DLS, 0.28 mM)","PDI [1, 5]","EC50 [3, 6]","EC50 [3, 7]","EC50 [3, 8]","EC50 [3, 9]","EC50 [3, 10]","EC50 [3, 11]","EC50 [3, 12]","EC50 [3, 13]","EC50 [3, 14]","EC50 [3, 15]","EC50 [3, 16]","EC50 [3, 17]","EC50 [3, 18]","EC50 [3, 19]","EC50 [3, 20]",also measured
Cc1ccc2nc(-c3ccc(NC(=O)NCS(=O)(=O)O)cc3)sc2c1 [SSA 3],56.01 nm,672.27 nm,672.27 nm and 672 nm,0.0863,0.0658,> 1.5 mM,> 1.5 mM,1.33 mM,0.953 mM,0.829 mM,> 1.5 mM,> 1.5 mM,> 1.5 mM,> 1.5 mM,> 1.5 mM,0.867 mM,0.615 mM,0.529 mM,0.15 mM,0.17 mM,Peak 1 (nm) ([1]; 0.28 mM): 0.43 nm; Peak 3 (nm) ([1]; 0.28 mM): 462.06 nm; Peak 1 (nm) ([1]; 2.78 mM): 51.65 nm; CAC [4]: 0.5 mM; CAC (mM) [4]: 0.5[42] mM; ST at CAC (mN m^−1) [4]: 47[42] mN m^−1; ST at CAC (mN/M) [4]: 46.5 mN/M
O=C(O)CNc1c(Nc2ccc(C(F)(F)F)cc2)c(=O)c1=O [SSA 5],125.90 nm,160.53 nm,174 nm,0.0547,0.0614,> 1.5 mM,0.302 mM,0.129 mM,0.1 mM,0.234 mM,> 1.5 mM,> 1.5 mM,0.683 mM,0.54 mM,0.429 mM,> 1.5 mM,0.641 mM,0.13 mM,0.088 mM,0.061 mM,Peak 3 (nm) ([1]; 0.28 mM): 747.97 nm
O=c1c(NCCCS(=O)(=O)O)c(Nc2ccc(C(F)(F)F)cc2)c1=O [SSA 4],,162.46 nm,162.46 nm and 162 nm,0.0452,0.0388,> 1.5 mM,> 1.5 mM,0.948 mM,0.675 mM,0.574 mM,> 1.5 mM,> 1.5 mM,1.18 mM,0.95 mM,0.91 mM,1.02 mM,0.396 mM,0.341 mM,0.288 mM,0.218 mM,

# Continued, in another order:
Peak 2 (nm) ([1]; 0.28 mM),Peak 2 (nm) ([1]; 2.78 mM),dH (nm) [1],"PDI ([1]; DLS, 0.28 mM)","PDI [1, 5]","EC50 [3, 6]","EC50 [3, 7]","EC50 [3, 8]","EC50 [3, 9]","EC50 [3, 10]","EC50 [3, 11]","EC50 [3, 12]","EC50 [3, 13]","EC50 [3, 14]","EC50 [3, 15]","EC50 [3, 16]","EC50 [3, 17]","EC50 [3, 18]","EC50 [3, 19]","EC50 [3, 20]",Structure (SMILES),also measured
139.08 nm,142.73 nm,142 nm and 143 nm,0.0160,0.0350,> 1.5 mM,1.43 mM,0.83 mM,0.661 mM,0.585 mM,> 1.5 mM,> 1.5 mM,> 1.5 mM,> 1.5 mM,1.15 mM,> 1.5 mM,1.14 mM,0.727 mM,0.563 mM,0.49 mM,O=C(O)CNC(=S)Nc1ccc(C(F)(F)F)cc1 [SSA 2],antibiofilm activity [2]: 60–80%
100.61 nm,184.36 nm,184.36 nm and 184 nm,0.0602,0.0315,0.055 mM and 0.0549 mM,0.01 mM and 0.0095 mM,0.0048 mM,0.002 mM,0.002 mM and 0.0015 mM,0.0302 mM,0.009 mM,0.004 mM,0.002 mM and 0.0022 mM,0.002 mM and 0.0017 mM,0.0677 mM,0.032 mM,0.0156 mM,0.0062 mM,0.0037 mM,O=S(=O)(O)CCCNC(=S)Nc1ccc(C(F)(F)F)cc1 [SSA 1],Peak 1 (nm) ([1]; 0.28 mM): 0.23 nm; Peak 3 (nm) ([1]; 0.28 mM): 747.99 nm; CAC [4]: 5.61 mM; CAC (mM) [4]: 5.6[43] mM; ST at CAC (mN m^−1) [4]: 34[43] mN m^−1; ST at CAC (mN/M) [4]: 33.59 mN/M; antibiofilm activity [2]: 60–80%
